{"source": "patent US10335420B2", "about": "“Nanoparticle-based tumor-targeted drug delivery” (The Scripps Research Institute, priority 2010, dated 2019)", "key": {"4TO7 tumors": {"tested_on": "4TO7 tumors", "experiment": "4TO7 tumor growth in mice treated with Leg-NP-CDDO", "type": "in vivo, BALB/c mice", "conditions": "8 i.v. injections", "description": "In vivo tumor studies. 4TO7 (5×10^3) cells or MMTV-Neu (1×10^4) primary tumor cells were injected orthotopically into female BALB/c or FVB/NJ mice, respectively. NPs in 200 μl of PBS (about 1.36×10^13 particles) were administered i.v. and tumor dimensions measured using digital microcalipers. Tumor volume was calculated using the formula [(a^2×b)/2], where ‘a’ is the larger of two perpendicular diameters. For recurrence studies, primary tumors were surgically removed and mice re-challenged orthotopically in the contralateral mammary fat pad. Mice were vaccinated 3 times orally at 1 week intervals by gavage with attenuated salmonella typhimuirum (1×10^8 CFU per mouse) transduced with either pNeuTm (provided by Wei-Zen Wei, Karmanos Cancer Center, Detroit, Mich., USA) or empty vector.\nLeg-NP-CDDO suppresses growth of murine breast tumors. To evaluate the in vivo effects of Leg-NP-CDDO, BALB/c mice were orthotopically challenged with about 5×10^3 4TO7 tumor cells and 4 days later, treated them with 8 i.v. injections of Leg-NP-CDDO or controls (FIG. 7A)."}, "4TO7 orthotopic tumors": {"tested_on": "4TO7 orthotopic tumors", "experiment": "Doxorubicin biodistribution in tumor-bearing mice by fluorescence microscopy", "type": "in vivo", "conditions": "two i.v. injections, about 24 h after the last injection", "description": "Doxorubicin was also loaded into RR-11a^− NPs (NP-Dox) as a control. […] Data represent means±s.e.m. The percentage of the drug uptake concentration was determined by comparing the MFI of RDZ-218, NP-Dox, and Free Dox-treated cells with that of serially diluted doxorubicin; see FIG. 2b. […] Data is shown relative to untreated cells (Control); n=3 wells per group. Data represent means±s.e.m. *p<0.05, **p<0.005. 4TO7 cells were injected into the inguinal mammary fat pad of female BALB/c mice. Tumors were allowed to establish for about 5 d, to a size of approximately 500 mm^3, after which mice were given two i.v. injections with RDZ-218, NP-Dox or Free Dox. Mice were sacrificed about 24 h after the last injection and tissues were isolated and immediately analyzed by fluorescence microscopy to detect distribution of doxorubicin; see FIG. 2d. Tissue sections were also stained with DAPI to visualize cell nuclei; n=2 mice per group; scale bars, 100 μm."}, "[1]": {"type": "in vivo", "conditions": "5 mg/kg doxorubicin i.v.", "description": "The dose of doxorubicin for all groups was 5 mg/kg.\nFemale BALB/c mice were injected orthotopically with 4TO7 breast tumor cells. Tumors were allowed to establish and reach a size of approximately 500 mm^3 prior to treatment. […] Doxorubicin was administered at about 5 mg/kg in 200 μl of PBS for all groups; n=5 mice per group."}}, "note": "Like-named read-outs stand apart in the source and are kept apart here."}
{"smiles": "CC1(C)CC[C@]2(C(=O)n3ccnc3)CC[C@]3(C)[C@H](C(=O)C=C4[C@@]5(C)C=C(C#N)C(=O)C(C)(C)[C@@H]5CC[C@]43C)[C@@H]2C1", "note": "[CDDO-Im, 1-[2-cyano-3-,12-dioxooleana-1,9(11)-dien-28-oyl]imidazole]", "values": [{"measurement": "primary tumor growth", "setting": "4TO7 tumors", "value": "markedly less effective"}, {"measurement": "dose required for effective Stat3 inhibition", "setting": "STAT-3", "value": 100, "unit": "nmol/L"}]}
{"smiles": "COc1cccc2c1C(=O)c1c(O)c3c(c(O)c1C2=O)C[C@@](O)(C(=O)CO)C[C@@H]3O[C@H]1C[C@H](N)[C@H](O)[C@H](C)O1", "note": "[Free Dox, doxorubicin]", "values": [{"measurement": "doxorubicin fluorescence in tumors", "setting": "4TO7 orthotopic tumors", "value": "strikingly reduced or punctate"}, {"measurement": "number of mice surviving, out of a total of 5", "setting": "[1]; after treatment 0", "value": "5/5"}, {"measurement": "number of mice surviving, out of a total of 5", "setting": "[1]; after treatment 1, 24-hour intervals", "value": "0/5"}]}
